Measured values from the supplement of paper PMC10307832.

Tests used:
Test in all cases: relative viability (nuclei count vs DMSO), 5 days (fraction); higher = more cells survive
Sunitinib + Bortezomib = compound: CCN(CC)CCNC(=O)c1c(C)[nH]c(/C=C2\C(=O)Nc3ccc(F)cc32)c1C [Sunitinib] + CC(C)C[C@H](NC(=O)[C@H](Cc1ccccc1)NC(=O)c1cnccn1)B(O)O [Bortezomib] (partner 0.002 µM)
Summary of the method: (§1)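 Relative viability is defined as nuclei in treated wells over nuclei in vehicle wells. Duplicate plates were run and medians reported. Lung cancer cell lines in 1536-well plates were dosed by pin tool one day after seeding, with one drug or with a fixed anchor-drug dose plus five library-drug doses (not always all listed) in √10 steps, and nuclei were counted after 5 days.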

Sunitinib + Lapatinib = compound: CCN(CC)CCNC(=O)c1c(C)[nH]c(/C=C2\C(=O)Nc3ccc(F)cc32)c1C [Sunitinib] + CS(=O)(=O)CCNCc1ccc(-c2ccc3ncnc(Nc4ccc(OCc5cccc(F)c5)c(Cl)c4)c3c2)o1 [Lapatinib] (partner 2 µM)
Summary of the method: as §1

Sunitinib + AZD7762 = compound: CCN(CC)CCNC(=O)c1c(C)[nH]c(/C=C2\C(=O)Nc3ccc(F)cc32)c1C [Sunitinib] + NC(=O)Nc1cc(-c2cccc(F)c2)sc1C(=O)N[C@H]1CCCNC1 [AZD7762] (partner 0.2 µM)
Summary of the method: as §1

Sunitinib + Decitabine = compound: CCN(CC)CCNC(=O)c1c(C)[nH]c(/C=C2\C(=O)Nc3ccc(F)cc32)c1C [Sunitinib] + Nc1ncn([C@H]2C[C@H](O)[C@@H](CO)O2)c(=O)n1 [Decitabine] (partner 2 µM)
Summary of the method: as §1

## H3255
Sunitinib + Bortezomib; first compound 0.02 µM
  relative viability: 0.817
Sunitinib + Bortezomib; first compound 0.2 µM
  relative viability: 0.827
Sunitinib + Bortezomib; first compound 0.6325 µM
  relative viability: 0.995
Sunitinib + Bortezomib; first compound 2 µM
  relative viability: 0.822
Sunitinib + Lapatinib; first compound 0.02 µM
  relative viability: 0.231
Sunitinib + Lapatinib; first compound 0.06325 µM
  relative viability: 0.313
Sunitinib + Lapatinib; first compound 0.2 µM
  relative viability: 0.227
Sunitinib + Lapatinib; first compound 0.6325 µM
  relative viability: 0.259
Sunitinib + Lapatinib; first compound 2 µM
  relative viability: 0.236
Sunitinib + AZD7762; first compound 0.02 µM
  relative viability: 0.968
Sunitinib + AZD7762; first compound 0.06325 µM
  relative viability: 0.888
Sunitinib + AZD7762; first compound 0.6325 µM
  relative viability: 0.871
Sunitinib + AZD7762; first compound 2 µM
  relative viability: 0.871
Sunitinib + Decitabine; first compound 0.02 µM
  relative viability: 0.567
Sunitinib + Decitabine; first compound 0.06325 µM
  relative viability: 0.671
Sunitinib + Decitabine; first compound 0.2 µM
  relative viability: 0.607
Sunitinib + Decitabine; first compound 0.6325 µM
  relative viability: 0.651
Sunitinib + Decitabine; first compound 2 µM
  relative viability: 0.529

## HARA
Sunitinib + Bortezomib; first compound 0.02 µM
  relative viability: 1
Sunitinib + Bortezomib; first compound 0.06325 µM
  relative viability: 1.17
Sunitinib + Bortezomib; first compound 0.2 µM
  relative viability: 1.32
Sunitinib + Bortezomib; first compound 0.6325 µM
  relative viability: 1.22
Sunitinib + Bortezomib; first compound 2 µM
  relative viability: 1.14
Sunitinib + Lapatinib; first compound 0.02 µM
  relative viability: 0.767
Sunitinib + Lapatinib; first compound 0.06325 µM
  relative viability: 0.813
Sunitinib + Lapatinib; first compound 0.2 µM
  relative viability: 0.881
Sunitinib + Lapatinib; first compound 0.6325 µM
  relative viability: 0.729
Sunitinib + Lapatinib; first compound 2 µM
  relative viability: 0.801
Sunitinib + AZD7762; first compound 0.02 µM
  relative viability: 0.355
Sunitinib + AZD7762; first compound 0.06325 µM
  relative viability: 0.337
Sunitinib + AZD7762; first compound 0.2 µM
  relative viability: 0.582
Sunitinib + AZD7762; first compound 0.6325 µM
  relative viability: 0.29
Sunitinib + AZD7762; first compound 2 µM
  relative viability: 0.301
Sunitinib + Decitabine; first compound 0.02 µM
  relative viability: 0.506
Sunitinib + Decitabine; first compound 0.06325 µM
  relative viability: 0.604
Sunitinib + Decitabine; first compound 0.2 µM
  relative viability: 0.539
Sunitinib + Decitabine; first compound 0.6325 µM
  relative viability: 0.563
Sunitinib + Decitabine; first compound 2 µM
  relative viability: 0.586

## HCC-15
Sunitinib + Bortezomib; first compound 0.02 µM
  relative viability: 0.941
Sunitinib + Bortezomib; first compound 0.06325 µM
  relative viability: 1.16
Sunitinib + Bortezomib; first compound 0.2 µM
  relative viability: 1.17
Sunitinib + Bortezomib; first compound 0.6325 µM
  relative viability: 1.02
Sunitinib + Bortezomib; first compound 2 µM
  relative viability: 1.05
Sunitinib + Lapatinib; first compound 0.02 µM
  relative viability: 0.855
Sunitinib + Lapatinib; first compound 0.06325 µM
  relative viability: 0.9
Sunitinib + Lapatinib; first compound 0.2 µM
  relative viability: 0.91
Sunitinib + Lapatinib; first compound 0.6325 µM
  relative viability: 0.826
Sunitinib + Lapatinib; first compound 2 µM
  relative viability: 0.829
Sunitinib + AZD7762; first compound 0.02 µM
  relative viability: 1.17
Sunitinib + AZD7762; first compound 0.06325 µM
  relative viability: 1.28
Sunitinib + AZD7762; first compound 0.2 µM
  relative viability: 1.37
Sunitinib + AZD7762; first compound 0.6325 µM
  relative viability: 1.09
Sunitinib + AZD7762; first compound 2 µM
  relative viability: 1.41
Sunitinib + Decitabine; first compound 0.02 µM
  relative viability: 0.639
Sunitinib + Decitabine; first compound 0.06325 µM
  relative viability: 0.829
Sunitinib + Decitabine; first compound 0.2 µM
  relative viability: 0.708
Sunitinib + Decitabine; first compound 0.6325 µM
  relative viability: 0.671
Sunitinib + Decitabine; first compound 2 µM
  relative viability: 0.677

## HCC-44
Sunitinib + Bortezomib; first compound 0.02 µM
  relative viability: 0.893
Sunitinib + Bortezomib; first compound 0.06325 µM
  relative viability: 0.898
Sunitinib + Bortezomib; first compound 0.2 µM
  relative viability: 1.1
Sunitinib + Bortezomib; first compound 2 µM
  relative viability: 0.88
Sunitinib + Lapatinib; first compound 0.02 µM
  relative viability: 1.06
Sunitinib + Lapatinib; first compound 0.06325 µM
  relative viability: 1
Sunitinib + Lapatinib; first compound 0.2 µM
  relative viability: 1.09
Sunitinib + Lapatinib; first compound 0.6325 µM
  relative viability: 0.985
Sunitinib + AZD7762; first compound 0.02 µM
  relative viability: 1.05
Sunitinib + AZD7762; first compound 0.06325 µM
  relative viability: 1.08
Sunitinib + AZD7762; first compound 0.2 µM
  relative viability: 1.01
Sunitinib + AZD7762; first compound 0.6325 µM
  relative viability: 1.01
Sunitinib + AZD7762; first compound 2 µM
  relative viability: 1.05
Sunitinib + Decitabine; first compound 0.02 µM
  relative viability: 0.931
Sunitinib + Decitabine; first compound 0.06325 µM
  relative viability: 1.04
Sunitinib + Decitabine; first compound 0.2 µM
  relative viability: 0.99
Sunitinib + Decitabine; first compound 0.6325 µM
  relative viability: 0.951
Sunitinib + Decitabine; first compound 2 µM
  relative viability: 0.949

## HCC-78
Sunitinib + Bortezomib; first compound 0.02 µM
  relative viability: 0.508
Sunitinib + Bortezomib; first compound 0.06325 µM
  relative viability: 0.554
Sunitinib + Bortezomib; first compound 0.2 µM
  relative viability: 0.518
Sunitinib + Bortezomib; first compound 0.6325 µM
  relative viability: 0.464
Sunitinib + Bortezomib; first compound 2 µM
  relative viability: 0.494
Sunitinib + Lapatinib; first compound 0.02 µM
  relative viability: 0.747
Sunitinib + Lapatinib; first compound 0.2 µM
  relative viability: 0.767
Sunitinib + Lapatinib; first compound 2 µM
  relative viability: 0.893
Sunitinib + AZD7762; first compound 0.02 µM
  relative viability: 0.554
Sunitinib + AZD7762; first compound 0.06325 µM
  relative viability: 0.609
Sunitinib + AZD7762; first compound 0.2 µM
  relative viability: 0.727
Sunitinib + AZD7762; first compound 0.6325 µM
  relative viability: 0.485
Sunitinib + AZD7762; first compound 2 µM
  relative viability: 0.713
Sunitinib + Decitabine; first compound 0.02 µM
  relative viability: 0.709
Sunitinib + Decitabine; first compound 0.06325 µM
  relative viability: 0.69
Sunitinib + Decitabine; first compound 0.2 µM
  relative viability: 0.737
Sunitinib + Decitabine; first compound 0.6325 µM
  relative viability: 0.683
Sunitinib + Decitabine; first compound 2 µM
  relative viability: 0.726

## HCC-366
Sunitinib + Bortezomib; first compound 0.02 µM
  relative viability: 0.98
Sunitinib + Bortezomib; first compound 0.06325 µM
  relative viability: 1.05
Sunitinib + Bortezomib; first compound 0.2 µM
  relative viability: 1.04
Sunitinib + Bortezomib; first compound 0.6325 µM
  relative viability: 1.15
Sunitinib + Bortezomib; first compound 2 µM
  relative viability: 0.989
Sunitinib + Lapatinib; first compound 0.02 µM
  relative viability: 1.04
Sunitinib + Lapatinib; first compound 0.06325 µM
  relative viability: 1.17
Sunitinib + Lapatinib; first compound 0.2 µM
  relative viability: 1.33
Sunitinib + Lapatinib; first compound 2 µM
  relative viability: 1.07
Sunitinib + AZD7762; first compound 0.02 µM
  relative viability: 0.241
Sunitinib + AZD7762; first compound 0.06325 µM
  relative viability: 0.207
Sunitinib + AZD7762; first compound 0.2 µM
  relative viability: 0.379
Sunitinib + AZD7762; first compound 0.6325 µM
  relative viability: 0.238
Sunitinib + AZD7762; first compound 2 µM
  relative viability: 0.216
Sunitinib + Decitabine; first compound 0.02 µM
  relative viability: 0.314
Sunitinib + Decitabine; first compound 0.06325 µM
  relative viability: 0.361
Sunitinib + Decitabine; first compound 0.2 µM
  relative viability: 0.365
Sunitinib + Decitabine; first compound 0.6325 µM
  relative viability: 0.313
Sunitinib + Decitabine; first compound 2 µM
  relative viability: 0.408

## HCC-827
Sunitinib + Bortezomib; first compound 0.02 µM
  relative viability: 1.05
Sunitinib + Bortezomib; first compound 0.06325 µM
  relative viability: 1.15
Sunitinib + Bortezomib; first compound 0.2 µM
  relative viability: 1.04
Sunitinib + Bortezomib; first compound 2 µM
  relative viability: 1.12
Sunitinib + Lapatinib; first compound 0.02 µM
  relative viability: 0.191
Sunitinib + Lapatinib; first compound 0.06325 µM
  relative viability: 0.198
Sunitinib + Lapatinib; first compound 0.2 µM
  relative viability: 0.198
Sunitinib + Lapatinib; first compound 0.6325 µM
  relative viability: 0.222
Sunitinib + Lapatinib; first compound 2 µM
  relative viability: 0.215
Sunitinib + AZD7762; first compound 0.02 µM
  relative viability: 0.249
Sunitinib + AZD7762; first compound 0.06325 µM
  relative viability: 0.191
Sunitinib + AZD7762; first compound 0.2 µM
  relative viability: 0.21
Sunitinib + AZD7762; first compound 0.6325 µM
  relative viability: 0.174
Sunitinib + AZD7762; first compound 2 µM
  relative viability: 0.207
Sunitinib + Decitabine; first compound 0.02 µM
  relative viability: 0.324
Sunitinib + Decitabine; first compound 0.06325 µM
  relative viability: 0.314
Sunitinib + Decitabine; first compound 0.2 µM
  relative viability: 0.31
Sunitinib + Decitabine; first compound 0.6325 µM
  relative viability: 0.322
Sunitinib + Decitabine; first compound 2 µM
  relative viability: 0.292

## HOP-62
Sunitinib + Bortezomib; first compound 0.02 µM
  relative viability: 0.798
Sunitinib + Bortezomib; first compound 0.06325 µM
  relative viability: 0.83
Sunitinib + Bortezomib; first compound 0.2 µM
  relative viability: 0.947
Sunitinib + Bortezomib; first compound 0.6325 µM
  relative viability: 0.871
Sunitinib + Bortezomib; first compound 2 µM
  relative viability: 1.13
Sunitinib + Lapatinib; first compound 0.02 µM
  relative viability: 0.961
Sunitinib + Lapatinib; first compound 0.06325 µM
  relative viability: 1.09
Sunitinib + Lapatinib; first compound 0.2 µM
  relative viability: 1.01
Sunitinib + Lapatinib; first compound 0.6325 µM
  relative viability: 1.01
Sunitinib + Lapatinib; first compound 2 µM
  relative viability: 1.1
Sunitinib + AZD7762; first compound 0.02 µM
  relative viability: 0.579
Sunitinib + AZD7762; first compound 0.06325 µM
  relative viability: 0.675
Sunitinib + AZD7762; first compound 0.2 µM
  relative viability: 0.874
Sunitinib + AZD7762; first compound 0.6325 µM
  relative viability: 0.688
Sunitinib + AZD7762; first compound 2 µM
  relative viability: 0.85
Sunitinib + Decitabine; first compound 0.02 µM
  relative viability: 0.22
Sunitinib + Decitabine; first compound 0.06325 µM
  relative viability: 0.218
Sunitinib + Decitabine; first compound 0.2 µM
  relative viability: 0.252
Sunitinib + Decitabine; first compound 0.6325 µM
  relative viability: 0.209
Sunitinib + Decitabine; first compound 2 µM
  relative viability: 0.239
